Among the data in paper PMC9728092 (RSC Advances, 2022) are IC50 values, retold here.

The IC50 is the concentration that inhibits the measured activity by half. A low value points to inhibition by little substance.

The target in the experiment is AChE (Homo sapiens, UniProt P22303). Kind of experiment: AChE inhibitory assay in vitro. It counts as biochemical.
Sequence of AChE (P22303 32-614): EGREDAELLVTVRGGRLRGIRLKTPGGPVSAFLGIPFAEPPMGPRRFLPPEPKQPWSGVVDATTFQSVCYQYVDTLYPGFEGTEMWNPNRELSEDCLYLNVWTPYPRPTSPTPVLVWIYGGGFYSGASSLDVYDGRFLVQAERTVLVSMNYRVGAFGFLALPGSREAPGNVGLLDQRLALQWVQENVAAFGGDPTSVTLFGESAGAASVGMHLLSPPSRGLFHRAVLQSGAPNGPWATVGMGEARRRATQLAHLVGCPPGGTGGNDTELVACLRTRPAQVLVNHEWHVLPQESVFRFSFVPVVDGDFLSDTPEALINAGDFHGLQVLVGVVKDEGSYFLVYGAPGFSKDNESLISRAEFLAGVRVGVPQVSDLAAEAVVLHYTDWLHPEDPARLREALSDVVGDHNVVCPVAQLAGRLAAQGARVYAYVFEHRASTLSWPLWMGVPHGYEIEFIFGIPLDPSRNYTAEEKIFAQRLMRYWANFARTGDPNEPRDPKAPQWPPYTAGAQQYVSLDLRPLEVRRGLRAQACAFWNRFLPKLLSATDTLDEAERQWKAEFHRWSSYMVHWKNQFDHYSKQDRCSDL

In turn, `O=C1c2c(O)cc(O)cc2O[C@H](c2ccc(O)cc2)[C@H]1O` [Compound 10, dihydrokaempferol] yielded an IC50 of more than 50 µM.

Turning to `O=c1c(O)c(-c2ccc(O)cc2)oc2cc(O)cc(O)c12` [Compound 8, kaempferol], inhibition was half-maximal at 17.9 ± 0.18 µM (IC50).

For the molecule `O=c1c(O)c(-c2ccc(O)c(O)c2)oc2cc(O)cc(O)c12` [Compound 9, quercetin], the IC50 was 3.96 ± 0.27 µM.
